According to EPA's ToxValDB 9.5 (doi:10.2903/j.efsa.2008.170r):

Experiments:
Apis mellifera = conditions: acute; dermal; mortality
Bird = conditions: chronic/long-term; mortality
Canidae = conditions: chronic; duration: 1 years; oral; Dog Other; body weight
Daphnia magna = conditions: chronic/long-term
Rattus norvegicus = conditions: acute; mortality
Typhlodromus pyri = conditions: not reported; mortality

Molecule `CC(=O)O.CC1CN(C2CCCCCCCCCCC2)CC(C)O1` (configuration not stated) [Dodemorph acetate] has an LD50 (Apis mellifera) greater than 76.6 µg/piece, an LD50 (Bird) of 9.4 mg/kg-day and an NOAEL (Canidae) of 10 mg/kg-day. It also gave an NOEC (Daphnia magna) of 0.08 mg/L, an LC50 (Oncorhynchus mykiss; acute, duration: 96 hours, mortality) of 1.23 µg/mL and an NOEC (Oncorhynchus mykiss; chronic/long-term, duration: 28 days, growth) of 0.1 mg/L. For the same molecule, the LD50 (Oryctolagus sp.; acute, mortality) was 21 mg/kg-day, the NOAEL (Oryctolagus sp.; developmental, development) was 40 mg/kg-day and the LD50 (Rattus norvegicus) was 4100 mg/kg. The LC50 (Tagia sp.; acute, duration: 14 days, mortality) was greater than 824 mg/kg, the NOEC (Tagia sp.; chronic/long-term, duration: 56 days, other) was 103 mg/kg and the LEL (Typhlodromus pyri) was 660 g/ha.
